Data: ChEMBL document CHEMBL4373693, “Virtual Screening Approach and Investigation of Structure-Activity Relationships To Discover Novel Bacterial Topoisomerase Inhibitors Targeting Gram-Positive and Gram-Negative Pathogens” (J Med Chem, 2019)
pIC50: −log10 of the molar value.

Key:
[1] = molecular target: T1, DNA topoisomerase 4 subunit A (Escherichia coli K-12, UniProt P0AFI2); experiment: Inhibition of Escherichia coli ATCC 25922 DNA topoisomerase 4 subunit ParC assessed as reduction in decatenation of kinetoplast DNA incubated for 30 mins by ethidium bromide staining based gel electrophoresis method
T1 sequence (P0AFI2 whole entry): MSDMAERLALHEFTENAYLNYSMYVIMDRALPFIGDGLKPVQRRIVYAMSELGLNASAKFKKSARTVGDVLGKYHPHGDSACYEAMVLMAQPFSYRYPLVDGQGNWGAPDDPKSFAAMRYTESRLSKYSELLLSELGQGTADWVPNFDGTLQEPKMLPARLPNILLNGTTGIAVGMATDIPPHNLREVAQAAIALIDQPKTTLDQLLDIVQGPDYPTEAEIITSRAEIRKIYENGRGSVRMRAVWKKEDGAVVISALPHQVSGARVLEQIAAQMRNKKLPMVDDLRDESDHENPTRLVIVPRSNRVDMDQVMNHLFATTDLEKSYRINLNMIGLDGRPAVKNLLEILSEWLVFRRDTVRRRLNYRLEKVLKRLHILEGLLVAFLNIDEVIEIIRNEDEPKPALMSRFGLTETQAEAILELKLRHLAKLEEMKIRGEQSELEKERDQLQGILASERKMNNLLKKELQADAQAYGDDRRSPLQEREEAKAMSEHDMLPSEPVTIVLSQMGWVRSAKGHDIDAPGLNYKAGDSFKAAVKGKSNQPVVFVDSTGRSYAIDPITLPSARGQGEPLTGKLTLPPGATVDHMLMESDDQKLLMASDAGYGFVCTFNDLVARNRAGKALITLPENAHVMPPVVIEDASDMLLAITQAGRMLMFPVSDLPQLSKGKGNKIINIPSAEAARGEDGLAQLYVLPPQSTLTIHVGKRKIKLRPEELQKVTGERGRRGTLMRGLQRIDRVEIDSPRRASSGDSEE

DNA gyrase subunit A [2] = molecular target: DNA gyrase subunit A (Escherichia coli K-12, UniProt P0AES4); experiment: Inhibition of Escherichia coli ATCC 25922 DNA gyrase A assessed as reduction in enzyme-mediated supercoiling of relaxed pBR322 DNA by ethidium bromide staining based gel electrophoresis method
[3] = molecular target: DNA topoisomerase 4 subunit A (Staphylococcus aureus, UniProt P0C1U9); experiment: Inhibition of Staphylococcus aureus ATCC 29213 DNA topoisomerase 4 subunit ParC assessed as reduction in decatenation of kinetoplast DNA incubated for 30 mins by ethidium bromide staining based gel electrophoresis method
DNA gyrase subunit A [4] = molecular target: DNA gyrase subunit A (Staphylococcus aureus, UniProt P20831); experiment: Inhibition of Staphylococcus aureus ATCC 29213 DNA gyrase A assessed as reduction in enzyme-mediated supercoiling of relaxed pBR322 DNA by ethidium bromide staining based gel electrophoresis method
DNA gyrase subunit A (Staphylococcus aureus, UniProt P20831), sequence (P20831 whole entry): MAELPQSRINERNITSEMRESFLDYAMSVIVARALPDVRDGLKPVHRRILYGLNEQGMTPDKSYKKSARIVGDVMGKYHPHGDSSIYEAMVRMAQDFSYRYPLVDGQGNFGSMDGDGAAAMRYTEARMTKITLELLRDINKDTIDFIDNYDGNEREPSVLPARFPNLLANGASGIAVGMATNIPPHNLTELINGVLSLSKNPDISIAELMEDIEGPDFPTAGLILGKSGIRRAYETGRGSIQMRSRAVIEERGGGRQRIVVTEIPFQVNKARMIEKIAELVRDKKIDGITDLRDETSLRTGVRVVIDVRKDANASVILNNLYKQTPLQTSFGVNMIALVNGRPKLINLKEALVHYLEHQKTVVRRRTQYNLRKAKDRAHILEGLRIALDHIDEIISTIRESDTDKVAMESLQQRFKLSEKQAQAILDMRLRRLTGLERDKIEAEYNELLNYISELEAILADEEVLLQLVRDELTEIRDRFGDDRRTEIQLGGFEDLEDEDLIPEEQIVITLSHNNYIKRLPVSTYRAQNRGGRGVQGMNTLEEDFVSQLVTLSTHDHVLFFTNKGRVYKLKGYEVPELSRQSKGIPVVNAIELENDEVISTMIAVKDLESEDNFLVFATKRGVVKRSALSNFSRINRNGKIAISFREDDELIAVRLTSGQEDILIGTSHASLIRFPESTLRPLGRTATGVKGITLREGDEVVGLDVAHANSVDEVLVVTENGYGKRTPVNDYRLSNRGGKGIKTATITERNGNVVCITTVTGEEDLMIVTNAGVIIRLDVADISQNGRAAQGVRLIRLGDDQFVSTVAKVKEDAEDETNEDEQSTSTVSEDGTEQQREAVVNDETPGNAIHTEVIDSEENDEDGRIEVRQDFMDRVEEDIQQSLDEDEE

DNA gyrase subunit A (Escherichia coli K-12, UniProt P0AES4), sequence (P0AES4 whole entry): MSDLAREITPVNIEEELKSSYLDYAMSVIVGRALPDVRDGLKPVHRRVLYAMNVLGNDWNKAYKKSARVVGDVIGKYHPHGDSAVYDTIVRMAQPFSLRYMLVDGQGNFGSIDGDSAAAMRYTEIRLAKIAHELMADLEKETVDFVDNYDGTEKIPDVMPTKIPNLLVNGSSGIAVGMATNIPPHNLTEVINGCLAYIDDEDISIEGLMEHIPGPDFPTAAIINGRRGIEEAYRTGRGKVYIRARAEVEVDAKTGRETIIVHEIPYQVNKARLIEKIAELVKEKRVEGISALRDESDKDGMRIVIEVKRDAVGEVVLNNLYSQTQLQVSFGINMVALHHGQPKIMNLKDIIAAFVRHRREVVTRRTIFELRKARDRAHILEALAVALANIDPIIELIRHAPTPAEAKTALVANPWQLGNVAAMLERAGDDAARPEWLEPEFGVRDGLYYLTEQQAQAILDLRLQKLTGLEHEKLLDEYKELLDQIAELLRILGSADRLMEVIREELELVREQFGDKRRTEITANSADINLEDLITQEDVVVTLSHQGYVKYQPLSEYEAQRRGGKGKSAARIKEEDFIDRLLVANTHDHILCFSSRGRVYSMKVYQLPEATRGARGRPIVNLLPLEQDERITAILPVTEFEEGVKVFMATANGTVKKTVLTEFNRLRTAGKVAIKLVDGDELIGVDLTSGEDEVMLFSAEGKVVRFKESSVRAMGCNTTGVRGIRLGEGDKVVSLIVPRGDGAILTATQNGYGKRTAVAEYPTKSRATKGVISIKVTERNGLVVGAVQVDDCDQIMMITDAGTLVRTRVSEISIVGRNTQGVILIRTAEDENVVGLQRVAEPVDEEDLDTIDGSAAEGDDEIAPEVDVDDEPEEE
DNA topoisomerase 4 subunit A (Staphylococcus aureus, UniProt P0C1U9), sequence (P0C1U9 whole entry): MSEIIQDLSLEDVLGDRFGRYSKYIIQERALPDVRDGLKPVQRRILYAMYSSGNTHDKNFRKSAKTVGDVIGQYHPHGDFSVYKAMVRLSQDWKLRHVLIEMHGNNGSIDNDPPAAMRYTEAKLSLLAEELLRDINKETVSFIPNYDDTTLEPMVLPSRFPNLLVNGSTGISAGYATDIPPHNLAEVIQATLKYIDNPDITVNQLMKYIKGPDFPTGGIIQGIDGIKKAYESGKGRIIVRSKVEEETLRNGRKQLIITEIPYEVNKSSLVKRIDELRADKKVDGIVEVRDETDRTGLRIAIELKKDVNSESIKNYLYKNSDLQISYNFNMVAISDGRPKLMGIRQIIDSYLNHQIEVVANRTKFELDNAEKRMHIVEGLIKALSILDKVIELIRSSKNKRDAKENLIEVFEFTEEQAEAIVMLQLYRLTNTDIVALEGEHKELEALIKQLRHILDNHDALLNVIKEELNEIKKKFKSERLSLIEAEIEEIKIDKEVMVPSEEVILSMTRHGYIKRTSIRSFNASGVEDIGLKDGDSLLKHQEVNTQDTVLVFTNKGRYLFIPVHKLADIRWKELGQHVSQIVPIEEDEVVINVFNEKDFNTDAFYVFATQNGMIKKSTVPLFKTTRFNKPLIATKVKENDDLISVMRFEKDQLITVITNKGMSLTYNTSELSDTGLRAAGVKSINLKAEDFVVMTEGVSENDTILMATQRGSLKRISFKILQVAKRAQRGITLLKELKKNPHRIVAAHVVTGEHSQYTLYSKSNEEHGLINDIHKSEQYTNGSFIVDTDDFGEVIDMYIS

SMILES: COc1cc2ccccc2c(N2CCN(CCCNc3cc(=O)oc4ccccc34)CC2)n1
- pIC50 [1]: 5.62
- pIC50 (DNA gyrase subunit A [2]): 4.18
- pIC50 [3]: 3.86
- pIC50 (DNA gyrase subunit A [4]): 4.36

SMILES: O=c1cc(N[C@H]2C[C@@H](N3CCN(c4nccc5ccccc45)CC3)C2)c2ccccc2o1
- pIC50 [1]: 6.05
- pIC50 (DNA gyrase subunit A [2]): 5.96
- pIC50 [3]: < 4.00
- pIC50 (DNA gyrase subunit A [4]): 5.92

SMILES: O=c1cc(NCCCN2CCN(c3nccc4ccc(F)cc34)CC2)c2ccccc2o1
- pIC50 [1]: 5.77
- pIC50 (DNA gyrase subunit A [2]): 6.10
- pIC50 [3]: 4.93
- pIC50 (DNA gyrase subunit A [4]): 5.55

SMILES: O=c1cc(NCCCN2CCN(c3nccc4ncccc34)CC2)c2ccccc2o1
- pIC50 [1]: 4.53
- pIC50 (DNA gyrase subunit A [2]): 4.39
- pIC50 [3]: 4.08
- pIC50 (DNA gyrase subunit A [4]): 4.57

SMILES: O=c1cc(NCCCN2CCN(c3nccc4ccc(F)cc34)CC2)c2c(o1)CCOC2
- pIC50 [1]: 4.23
- pIC50 (DNA gyrase subunit A [2]): 5.20
- pIC50 [3]: 5.40
- pIC50 (DNA gyrase subunit A [4]): 4.72

SMILES: Cc1c(NCCCN2CCN(c3nccc4ccc(F)cc34)CC2)c2ccccc2oc1=O
- pIC50 [1]: 5.66
- pIC50 (DNA gyrase subunit A [2]): 5.89
- pIC50 [3]: < 4.00
- pIC50 (DNA gyrase subunit A [4]): 4.77

SMILES: Cc1cccc2oc(=O)cc(NCCCN3CCN(c4nccc5ccc(F)cc45)CC3)c12
- pIC50 [1]: 5.51
- pIC50 (DNA gyrase subunit A [2]): 5.62
- pIC50 [3]: < 4.00
- pIC50 (DNA gyrase subunit A [4]): 5.68

SMILES: O=c1cc(NCCCN2CCN(c3nccc4ccc(F)cc34)CC2)c2c(o1)CCS(=O)(=O)C2
- pIC50 [1]: 4.28
- pIC50 (DNA gyrase subunit A [2]): 5.54
- pIC50 [3]: 5.68
- pIC50 (DNA gyrase subunit A [4]): 5.11

SMILES: O=c1cc(OCCCN2CCN(c3nccc4ccccc34)CC2)c2ccccc2o1
- pIC50 [1]: 4.65
- pIC50 (DNA gyrase subunit A [2]): 5.21
- pIC50 [3]: < 4.00
- pIC50 (DNA gyrase subunit A [4]): 4.55

SMILES: Cc1ccc2ccnc(N3CCN(CCCNc4cc(=O)oc5ccccc45)CC3)c2c1
- pIC50 [1]: 5.42
- pIC50 (DNA gyrase subunit A [2]): 5.59
- pIC50 [3]: 4.28
- pIC50 (DNA gyrase subunit A [4]): 5.02

SMILES: Cc1cc2ccccc2c(N2CCN(CCCNc3cc(=O)oc4ccccc34)CC2)n1
- pIC50 (DNA gyrase subunit A [2]): 5.32
- pIC50 [3]: 5.12
- pIC50 (DNA gyrase subunit A [4]): 4.48

SMILES: O=c1cc(NCCCN2CCN(c3nc(Cl)cc4ccccc34)CC2)c2ccccc2o1
- pIC50 [1]: 5.49
- pIC50 (DNA gyrase subunit A [2]): 5.64
- pIC50 [3]: 4.99
- pIC50 (DNA gyrase subunit A [4]): 4.92

SMILES: O=c1cc(NCCN2CCN(c3nccc4ccccc34)CC2)c2ccccc2o1
- pIC50 [1]: 5.17
- pIC50 [3]: < 4.00
- pIC50 (DNA gyrase subunit A [4]): 5.16

SMILES: O=C(CCN1CCN(c2nccc3ccc(F)cc23)CC1)Nc1cc(=O)oc2ccccc12
- pIC50 [1]: 6.15
- pIC50 (DNA gyrase subunit A [2]): 5.96
- pIC50 [3]: 4.40
- pIC50 (DNA gyrase subunit A [4]): 4.98

SMILES: O=c1cc(NCCCN2CCN(c3nccc4ccccc34)CC2)c2c(o1)CCCC2
- pIC50 [1]: 5.11
- pIC50 (DNA gyrase subunit A [2]): 5.12
- pIC50 [3]: 4.28
- pIC50 (DNA gyrase subunit A [4]): 5.43

SMILES: O=c1cc(N[C@H]2C[C@H](N3CCN(c4nccc5ccccc45)CC3)C2)c2ccccc2o1
- pIC50 [1]: 5.59
- pIC50 (DNA gyrase subunit A [2]): 5.68
- pIC50 [3]: 4.94
- pIC50 (DNA gyrase subunit A [4]): 5.25

SMILES: O=c1cc(NCCCN2CCN(c3nccc4ccc(F)cc34)CC2)c2c(o1)CCNC2
- pIC50 [1]: 5.14
- pIC50 (DNA gyrase subunit A [2]): 4.64
- pIC50 [3]: < 4.00
- pIC50 (DNA gyrase subunit A [4]): 3.79

SMILES: O=C1CN(c2nccc3ccccc23)CCN1CCCNc1cc(=O)oc2ccccc12
- pIC50 [1]: 4.55
- pIC50 (DNA gyrase subunit A [2]): 4.33
- pIC50 [3]: < 4.00
- pIC50 (DNA gyrase subunit A [4]): < 4.00

SMILES: O=c1cc(NCCCN2CCN(c3nccc4ccc(F)cc34)CC2)c2c(o1)CCSC2
- pIC50 [1]: 5.10
- pIC50 (DNA gyrase subunit A [2]): 5.89
- pIC50 [3]: 4.82
- pIC50 (DNA gyrase subunit A [4]): 5.89

SMILES: CN(C)c1ccc2ccnc(N3CCN(CCCNc4cc(=O)oc5ccccc45)CC3)c2c1
- pIC50 [1]: 5.06
- pIC50 (DNA gyrase subunit A [2]): 5.25
- pIC50 [3]: 4.95
- pIC50 (DNA gyrase subunit A [4]): 5.34

SMILES: CN(CCCN1CCN(c2nccc3ccccc23)CC1)c1cc(=O)oc2ccccc12
- pIC50 [1]: 4.64
- pIC50 (DNA gyrase subunit A [2]): 4.50
- pIC50 [3]: < 4.00
- pIC50 (DNA gyrase subunit A [4]): 4.92

SMILES: N#Cc1cc2ccccc2c(N2CCN(CCCNc3cc(=O)oc4ccccc34)CC2)n1
- pIC50 [1]: 5.41
- pIC50 (DNA gyrase subunit A [2]): 5.25
- pIC50 [3]: < 4.00
- pIC50 (DNA gyrase subunit A [4]): 5.44

SMILES: O=c1cc(NC2CCN(CCCc3ccccc3)CC2)c2cc(Cl)ccc2o1
- pIC50 [1]: 5.39
- pIC50 (DNA gyrase subunit A [2]): < 3.10
- pIC50 [3]: 3.70 to 4.00
- pIC50 (DNA gyrase subunit A [4]): 4.56
